{"source": "patent US11267861B2", "about": "“Peptide-oligourea foldamer compounds and methods of their use” (UREKA SARL, priority 2016, dated 2022)", "key": {"trypsin": {"test_system": "trypsin", "experiment": "Enzymatic degradation by trypsin", "assay_type": "in vitro ADME", "settings": "compared to native peptide GLP-1 (seq. 1)", "method": "Enzymatic Degradation—Chymotrypsin and Trypsin. Stock solutions of the compounds were prepared at a concentration of 400 μM in a solution of 50 mM HEPES buffer, 50 mM NaCl, 0.05% Tween-80, pH 8.0. […] Stability of compounds to chymotrypsin was assessed by conducting a protease reaction in a 96-well plates at room temperature. […] Each compound was also incubated in the absence of the enzyme (12 μL of HEPES buffer and 38 μL of the compound).\nAt the indicated time (5, 10, 15, 30 and 60 minute(s)) a 10 μL aliquot was removed from each experimental reaction and pipet into 100 μL of 1% TFA solution to quench the reaction (t=0 minutes was determined using the reaction without enzyme). A portion of the quenched reaction solution was analyzed by HPLC. The time course of peptide degradation was determined by integrating the area of each peak in a series of HPLC traces. Another portion of the quenched reaction was analyzed by LC-MS for identification of each peptide fragment."}, "[1]": {"molecular_target": "T1, Leucyl aminopeptidase (EC 3.4.11.1) (Sus scrofa, UniProt P28839)", "T1 construct": "from porcine kidney (Sigma); chromatographically purified suspension; purchased Sigma; host or cells: porcine kidney", "T1 sequence (P28839 1-519)": "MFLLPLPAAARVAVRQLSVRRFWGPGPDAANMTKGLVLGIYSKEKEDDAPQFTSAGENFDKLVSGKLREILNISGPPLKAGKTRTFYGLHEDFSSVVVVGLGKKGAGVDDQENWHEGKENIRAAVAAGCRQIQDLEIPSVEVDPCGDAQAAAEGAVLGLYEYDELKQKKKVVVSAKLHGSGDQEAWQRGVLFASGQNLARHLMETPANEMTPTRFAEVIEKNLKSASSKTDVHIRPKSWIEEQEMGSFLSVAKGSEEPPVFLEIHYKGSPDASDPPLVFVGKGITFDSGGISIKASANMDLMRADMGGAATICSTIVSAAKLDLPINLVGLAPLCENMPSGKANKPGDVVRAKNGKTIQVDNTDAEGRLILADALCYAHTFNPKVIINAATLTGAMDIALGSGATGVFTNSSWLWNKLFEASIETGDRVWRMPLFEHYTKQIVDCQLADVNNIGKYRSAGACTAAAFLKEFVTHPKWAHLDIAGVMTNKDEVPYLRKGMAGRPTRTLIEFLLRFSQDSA", "experiment": "Enzymatic degradation by leucyl aminopeptidase", "assay_type": "in vitro ADME, porcine", "settings": "compared to the native peptides", "method": "Enzymatic Degradation—Leucyl Aminopeptidase. Leucyl aminopeptidase (EC 3.4.11.1) from porcine kidney (Sigma); chromatographically purified suspension in 2.9 M (NH4)2SO4, 0.1 M Tris, 5 mM MgCl2 solution, pH 8.0; stock solution in PBS buffer (pH 7.2, 0.01 M). For each degradation experiment, stock solutions of the peptidic substrate and the enzyme were made using phosphate-buffered saline (PBS) buffer solution. […] The pH was adjusted either with NaOH (1 M) or with HCl (1 M) prior to use. A solution of the substrate in PBS buffer (pH 7.2, 0.01 M) and a solution of the required amount of enzyme, were mixed and incubated at 25° C. for 4 hours. Degradation was stopped with concentrated AcOH, and buffer solution was added so that the total volume reached 150 μL.\n(§1) The resulting mixture was analyzed by reversed-phase HPLC. A mixture of CH3CN/H2O (0.1% TFA) was used as eluent. Gradients were 10% CH3CN to 100% CH3CN in 10 minutes. The flow rate, for all separations, was 1 mL·min^−1."}, "[2]": {"molecular_target": "T2, Carboxypeptidase A (EC 3.4.17.1) (Bos taurus, UniProt P00730)", "T2 construct": "from bovine pancreas (Fluka), milky suspension; purchased Fluka; host or cells: bovine pancreas", "T2 sequence (P00730 111-419)": "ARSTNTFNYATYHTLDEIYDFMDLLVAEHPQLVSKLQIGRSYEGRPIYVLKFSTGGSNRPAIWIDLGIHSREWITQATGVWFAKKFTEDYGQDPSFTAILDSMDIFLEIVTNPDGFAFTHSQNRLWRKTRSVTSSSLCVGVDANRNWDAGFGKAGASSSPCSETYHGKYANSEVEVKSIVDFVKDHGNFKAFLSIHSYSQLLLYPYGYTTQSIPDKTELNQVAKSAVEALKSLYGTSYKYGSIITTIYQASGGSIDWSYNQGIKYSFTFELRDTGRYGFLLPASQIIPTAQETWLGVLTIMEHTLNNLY", "experiment": "Enzymatic degradation by carboxypeptidase A", "assay_type": "in vitro ADME, bovine", "settings": "same results = more stable than the native peptides", "method": "Enzymatic Degradation—Carboxypeptidase A. Carboxypeptidase A (EC 3.4.17.1) from bovine pancreas (Fluka), milky suspension, stock solution in PBS buffer (pH 7.5, 0.01 M). For each degradation experiment, stock solutions of the peptidic substrate and the enzyme were made using phosphate-buffered saline (PBS) buffer solution. The enzyme concentrations of the stock solutions were selected such that the standard substrates were totally degraded after a maximum of 15 min (ratio 2[enzyme]:100[substrate]). PBS buffer solution (10 mM sodium phosphate, 0.14 M NaCl) was prepared as follows: Solution A (4.75 mL of 0.2 M NaH2PO4.H2O), solution B (20.25 mL of 0.2 M Na2HPO4.H2O), NaCl (4.5 g) and H2O (25 mL) were stirred for 15 min at room temperature and diluted tenfold with H2O. The pH was adjusted either with NaOH (1 M) or with HCl (1 M) prior to use. A solution of the substrate in PBS buffer (pH 7.5, 0.01 M) and a solution of the required amount of enzyme, were mixed and incubated at 25° C. for 4 hours. Degradation was stopped with concentrated AcOH, and buffer solution was added so that the total volume reached 150 μL.\nas §1"}, "[3]": {"settings": "in vivo; cited from earlier work"}, "mouse GLP-1 receptor": {"molecular_target": "T3, mouse GLP-1 receptor (Mus musculus, UniProt O35659)", "T3 construct": "mouse GLP-1 receptor endogenously expressed in βTC6 cells; endogenous in cells; host or cells: βTC6 cells", "T3 sequence (O35659 22-463)": "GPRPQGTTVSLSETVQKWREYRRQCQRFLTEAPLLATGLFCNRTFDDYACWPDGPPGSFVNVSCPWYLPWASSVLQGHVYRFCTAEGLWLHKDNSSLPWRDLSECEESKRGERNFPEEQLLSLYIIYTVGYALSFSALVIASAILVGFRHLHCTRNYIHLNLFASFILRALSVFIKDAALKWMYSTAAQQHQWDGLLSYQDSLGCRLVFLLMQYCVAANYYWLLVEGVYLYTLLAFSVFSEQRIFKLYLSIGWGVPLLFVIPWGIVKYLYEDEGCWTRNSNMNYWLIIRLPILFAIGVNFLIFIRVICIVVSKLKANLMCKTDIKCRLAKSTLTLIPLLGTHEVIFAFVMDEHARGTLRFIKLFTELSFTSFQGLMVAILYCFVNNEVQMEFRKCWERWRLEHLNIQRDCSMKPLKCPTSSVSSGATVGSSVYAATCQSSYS", "experiment": "GLP-1 functional assay: agonist activity by cAMP production (HTRF) in βTC6 cells", "assay_type": "cell-based", "settings": "read-out: EC50 (nM), GLP-1 Functional Assay", "method": "For stimulated control measurement, separate assay wells contain 10 nM GLP-1(7-37) were utilized.\nFollowing incubation, the cells were lysed and the fluorescence acceptor (D2-labeled cAMP) and fluorescence donor (anti-cAMP antibody labeled with europium cryptate) were added. […] The results are expressed as a percent of the control response to 10 nM GLP-1(7-37). The standard reference agonist is GLP-1(7-37), which was tested in each experiment at several concentrations to generate a concentration-response curve from which its EC50 value was calculated.\nHTRF (Homogeneous Time-Resolved Fluorescence) principle. The HTRF technology is based on time resolved fluorescence energy transfer (TR-FRET), which occurs between long-lived fluorophore Europium or Terbium Cryptates, and EuK or Tb respectively, as a donor and the allophycocyanin XL665, d2 or Red as acceptor. Many compounds and proteins present in biological fluids or serum are naturally fluorescent, and the use of conventional, prompt fluorescence leads to serious limitations in assay sensitivity. The use of long-lived fluorophore combined with time-resolved detection (a delay between excitation and emission detection) minimizes prompt fluorescence interference."}}, "note": "Numbered stars: 1 amine (or outer) side, 2 acyl side, 3 side chain; on linkers, the order of the positions; unused ones are H or OH. Peptide text beside a SMILES is read from it. * marks the point of attachment. X10 = C[C@@H](CN*)NC(=O)[C@@H](N)Cc1c[nH]cn1; X2 = C[C@@H](O)[C@H](N)C(=O)N[C@@H](CO)CN*; X3 = O=C(O)[C@@H]1CCCN1C(=O)NC[C@H](CO)N*; CO = O=C([*:1])[*:2]", "data": [{"compound": "CC[C@H](C)[C@H](NC(=O)[C@H](Cc1ccccc1)NC(=O)NC[C@H](CCC(=O)O)NC(=O)[C@H](CCCCN)NC(=O)[C@H](C)NC(=O)[C@H](C)NC(=O)[C@H](CCC(N)=O)NC(=O)CNC(=O)[C@H](CCC(=O)O)NC(=O)[C@H](CC(C)C)NC(=O)[C@H](Cc1ccc(O)cc1)NC(=O)[C@H](CO)NC(=O)[C@H](CO)NC(=O)[C@@H](NC(=O)[C@H](CC(=O)O)NC(=O)[C@H](CO)NC(=O)[C@@H](NC(=O)[C@H](Cc1ccccc1)NC(=O)[C@@H](NC(=O)CNC(=O)[C@H](CCC(=O)O)NC(=O)[C@H](C)NC(=O)[C@@H](N)Cc1c[nH]cn1)[C@@H](C)O)[C@@H](C)O)C(C)C)C(=O)N[C@@H](C)C(=O)N[C@@H](Cc1c[nH]c2ccccc12)C(=O)N[C@@H](CC(C)C)C(=O)N[C@H](C(=O)N[C@@H](CCCCN)CNC(=O)NCC(=O)N[C@@H](CCCNC(=N)N)CNC(=O)NCC(=O)O)C(C)C", "note": "[Compound 11]", "values": [{"measurement": "half-life in the trypsin degradation test compared to native peptide", "setting": "trypsin", "value": "longer half-life"}]}, {"compound": "CCCC[C@H](NC(=O)[C@H](CC(C)C)NC(=O)[C@H](Cc1c[nH]c2ccccc12)NC(=O)[C@H](CCC(N)=O)NC(=O)[C@@H](NC(=O)[C@H](Cc1ccccc1)NC(=O)[C@H](CC(=O)O)NC(=O)[C@H](CCC(N)=O)NC(=O)[C@H](C)NC(=O)[C@H](CCCNC(=N)N)NC(=O)[C@H](CCCNC(=N)N)NC(=O)[C@H](CO)NC(=O)[C@H](CC(=O)O)NC(=O)[C@H](CC(C)C)NC(=O)[C@H](Cc1ccc(O)cc1)NC(=O)[C@H](CCCCN)NC(=O)[C@H](CO)NC(=O)[C@H](Cc1ccc(O)cc1)NC(=O)[C@H](CC(=O)O)NC(=O)[C@H](CO)NC(=O)[C@@H](NC(=O)[C@H](Cc1ccccc1)NC(=O)[C@@H](NC(=O)CNC(=O)[C@H](CCC(N)=O)NC(=O)[C@H](CO)NC(=O)NC[C@@H](N)Cc1c[nH]cn1)[C@@H](C)O)[C@@H](C)O)C(C)C)C(=O)N[C@@H](CC(N)=O)C(=O)N[C@H](C(=O)O)[C@@H](C)O", "note": "[Compound 17]", "values": [{"measurement": "stability (half-life) with leucyl aminopeptidase compared to native peptides", "setting": "[1]", "value": "more stable than the native peptides"}]}, {"compound": "CCCC[C@H](NC(=O)[C@H](CC(C)C)NC(=O)[C@H](Cc1c[nH]c2ccccc12)NC(=O)[C@H](CCC(N)=O)NC(=O)[C@@H](NC(=O)[C@H](Cc1ccccc1)NC(=O)[C@H](CC(=O)O)NC(=O)[C@H](CCC(N)=O)NC(=O)[C@H](C)NC(=O)[C@H](CCCNC(=N)N)NC(=O)[C@H](CCCNC(=N)N)NC(=O)[C@H](CO)NC(=O)[C@H](CC(=O)O)NC(=O)[C@H](CC(C)C)NC(=O)[C@H](Cc1ccc(O)cc1)NC(=O)[C@H](CCCCN)NC(=O)[C@H](CO)NC(=O)[C@H](Cc1ccc(O)cc1)NC(=O)[C@H](CC(=O)O)NC(=O)[C@H](CO)NC(=O)[C@@H](NC(=O)[C@H](Cc1ccccc1)NC(=O)[C@@H](NC(=O)CNC(=O)[C@H](CCC(N)=O)NC(=O)NC[C@H](CO)NC(=O)[C@@H](N)Cc1c[nH]cn1)[C@@H](C)O)[C@@H](C)O)C(C)C)C(=O)N[C@@H](CC(N)=O)C(=O)N[C@H](C(=O)O)[C@@H](C)O", "note": "[Compound 18]", "values": [{"measurement": "stability (half-life) with leucyl aminopeptidase compared to native peptides", "setting": "[1]", "value": "more stable than the native peptides"}]}, {"compound": "CC(C)C[C@H](NC(=O)[C@H](C)NC(=O)[C@H](Cc1c[nH]c2ccccc12)NC(=O)[C@H](Cc1ccc(O)cc1)NC(=O)[C@H](CCC(=O)O)NC(=O)[C@H](C)NC(=O)[C@H](Cc1ccccc1)NC(=O)NC[C@H](CO)NC(=O)[C@@H](N)[C@@H](C)O)C(=O)N[C@@H](CC(C)C)C(=O)N[C@@H](CO)CNC(=O)N1CCC[C@H]1C(=O)O", "note": "[Compound 24] ({X2-CO}-FAEYWALL-X3)", "values": [{"measurement": "stability with carboxipeptidase A compared to native peptides", "setting": "[2]", "value": "same results"}]}, {"compound": "Albiglutide", "values": [{"measurement": "half-life", "setting": "[3]", "value": "four to seven"}]}, {"compound": "{X10-CO}-EGTFTSDLSKQLEEEAVRLFIEWLKNGGPSSGAPPSKKKKKK-NH2 [Compound 67]", "values": [{"measurement": "EC50", "setting": "mouse GLP-1 receptor", "value": 0.082, "unit": "nM"}]}]}
